Results as given in ChEMBL document CHEMBL1149477, “Monocyclic thiophenes as protein tyrosine phosphatase 1B inhibitors: capturing interactions with Asp48” (Bioorg Med Chem Lett, 2006).
Activity calls are given as the source filed them. No cut-off for these calls is given here.

Target: T1, Tyrosine-protein phosphatase non-receptor type 1 (Homo sapiens) (UniProt P18031)
T1 sequence (whole entry): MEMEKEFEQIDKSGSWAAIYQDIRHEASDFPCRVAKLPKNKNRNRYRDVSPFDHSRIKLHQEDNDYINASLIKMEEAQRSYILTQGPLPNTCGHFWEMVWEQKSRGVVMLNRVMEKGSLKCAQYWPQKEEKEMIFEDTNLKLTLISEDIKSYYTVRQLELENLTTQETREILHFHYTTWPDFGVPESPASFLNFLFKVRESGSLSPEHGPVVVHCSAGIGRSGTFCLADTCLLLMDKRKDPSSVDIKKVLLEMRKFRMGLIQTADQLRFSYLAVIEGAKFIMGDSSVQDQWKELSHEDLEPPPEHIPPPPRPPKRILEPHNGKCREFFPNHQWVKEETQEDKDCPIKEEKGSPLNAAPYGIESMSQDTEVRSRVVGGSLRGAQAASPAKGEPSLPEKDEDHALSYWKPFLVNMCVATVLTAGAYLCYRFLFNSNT
Experiment: (§1) Inhibition of PTP1B

With `O=C(O)COc1c(C(=O)O)sc(-c2ccccc2)c1-c1ccccc1` the Activity was “inactive”.

Target: T2, Tyrosine-protein phosphatase non-receptor type 1 (Homo sapiens, UniProt P18031)
T2 sequence (P18031 whole entry): T1 sequence (whole entry)
Experiment: as §1

Point of comparison: `O=C(O)COc1c(C(=O)O)sc(-c2cccc(O)c2)c1Br`, Ki 1 µM. Against it:
- CC1(C)CC(Nc2ccc(-c3sc(C(=O)O)c(OCC(=O)O)c3Br)cc2)CC(C)(C)C1 — 4-fold lower, 0.25 µM
- O=C(O)COc1c(-c2ccccc2)csc1C(=O)O — higher, > 1000 µM
- O=C(O)COc1c(C(=O)O)sc(Br)c1Br — 18-fold higher, 18 µM
- O=C(O)COc1c(C(=O)O)sc(-c2ccc(NS(=O)(=O)c3ccc(C(F)(F)F)cc3)cc2)c1Br — 5-fold lower, 0.2 µM
- Cc1csc(C(=O)O)c1OCC(=O)O — higher, > 1000 µM
- Nc1ccc(-c2sc(C(=O)O)c(OCC(=O)O)c2Br)cc1 — 1.6-fold higher, 1.6 µM
- O=C(O)COc1c(C(=O)O)sc(-c2ccc(NC(=O)c3ccco3)cc2)c1Br — 1.6-fold lower, 0.62 µM
- O=C(O)COc1c(C(=O)O)sc(-c2ccc3ccoc3c2)c1Br — 5-fold higher, 5 µM
- O=C(O)COc1c(C(=O)O)sc(-c2ccc3ccccc3c2)c1Br — 3.3-fold higher, 3.3 µM
- CS(=O)(=O)Nc1ccc(-c2sc(C(=O)O)c(OCC(=O)O)c2Br)cc1 — within 1.5-fold, 0.74 µM
- CC(C)NC(=O)Nc1ccc(-c2sc(C(=O)O)c(OCC(=O)O)c2Br)cc1 — 2.8-fold lower, 0.36 µM
- CN(c1ccc(-c2sc(C(=O)O)c(OCC(=O)O)c2Br)cc1)S(=O)(=O)c1ccc(C(F)(F)F)cc1 — within 1.5-fold, 1.2 µM
- O=C(O)COc1c(C(=O)O)sc(-c2ccc(C(=O)Nc3ccccc3)cc2)c1Br — 2.5-fold higher, 2.5 µM
- COC(=O)Nc1ccc(-c2sc(C(=O)O)c(OCC(=O)O)c2Br)cc1 — the same, 1 µM
- O=C(O)COc1c(C(=O)O)sc(-c2ccc(NC(=O)c3ccccc3)cc2)c1Br — 1.7-fold lower, 0.6 µM
- O=C(O)COc1c(C(=O)O)sc(-c2ccsc2)c1Br — within 1.5-fold, 1.4 µM
- O=C(O)COc1ccsc1C(=O)O — higher, > 1000 µM
- O=C(O)COc1c(C(=O)O)sc(-c2cccnc2)c1Br — 4-fold higher, 4 µM
- CC(=O)Nc1ccc(-c2sc(C(=O)O)c(OCC(=O)O)c2Br)cc1 — 2-fold lower, 0.5 µM
- O=C(O)COc1c(C(=O)O)sc(-c2ccc3cc[nH]c3c2)c1Br — 1.8-fold lower, 0.57 µM
- COc1ccc(-c2sc(C(=O)O)c(OCC(=O)O)c2Br)cc1 — 3-fold higher, 3 µM

Target: T3, Receptor-type tyrosine-protein phosphatase C (Homo sapiens, UniProt P08575)
T3 sequence (P08575 whole entry): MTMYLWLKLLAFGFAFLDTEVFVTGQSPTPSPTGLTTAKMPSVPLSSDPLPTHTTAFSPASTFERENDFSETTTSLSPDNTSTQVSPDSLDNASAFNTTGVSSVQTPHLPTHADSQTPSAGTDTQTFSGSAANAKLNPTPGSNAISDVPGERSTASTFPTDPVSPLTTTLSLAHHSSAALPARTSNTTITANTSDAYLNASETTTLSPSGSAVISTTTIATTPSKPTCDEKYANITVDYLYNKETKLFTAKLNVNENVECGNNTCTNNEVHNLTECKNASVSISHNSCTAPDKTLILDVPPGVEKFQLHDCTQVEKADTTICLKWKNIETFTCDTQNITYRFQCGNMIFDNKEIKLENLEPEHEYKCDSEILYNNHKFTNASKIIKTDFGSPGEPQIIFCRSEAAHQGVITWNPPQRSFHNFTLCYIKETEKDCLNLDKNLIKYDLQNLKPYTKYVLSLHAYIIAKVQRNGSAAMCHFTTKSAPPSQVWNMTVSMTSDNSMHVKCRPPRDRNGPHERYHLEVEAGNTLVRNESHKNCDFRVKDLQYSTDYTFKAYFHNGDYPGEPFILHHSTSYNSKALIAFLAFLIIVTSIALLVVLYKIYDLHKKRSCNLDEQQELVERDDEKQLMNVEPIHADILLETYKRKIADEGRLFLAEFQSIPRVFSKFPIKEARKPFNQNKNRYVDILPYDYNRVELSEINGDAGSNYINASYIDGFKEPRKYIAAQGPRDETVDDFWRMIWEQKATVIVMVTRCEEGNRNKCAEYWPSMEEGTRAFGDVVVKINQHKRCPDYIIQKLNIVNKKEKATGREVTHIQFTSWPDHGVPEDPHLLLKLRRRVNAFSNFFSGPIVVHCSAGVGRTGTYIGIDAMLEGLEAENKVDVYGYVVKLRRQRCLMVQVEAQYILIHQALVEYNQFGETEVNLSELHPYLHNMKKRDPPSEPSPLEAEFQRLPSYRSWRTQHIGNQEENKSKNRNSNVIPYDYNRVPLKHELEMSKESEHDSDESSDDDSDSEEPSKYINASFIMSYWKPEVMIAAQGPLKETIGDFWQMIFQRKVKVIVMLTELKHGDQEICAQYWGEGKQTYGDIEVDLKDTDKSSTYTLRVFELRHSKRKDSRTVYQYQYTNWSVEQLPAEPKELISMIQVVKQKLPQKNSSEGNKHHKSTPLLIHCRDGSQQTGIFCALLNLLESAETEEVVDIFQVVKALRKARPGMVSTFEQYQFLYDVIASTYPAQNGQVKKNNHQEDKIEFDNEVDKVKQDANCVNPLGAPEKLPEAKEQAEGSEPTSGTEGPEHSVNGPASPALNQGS
Experiment: Inhibition of CD45

Point of comparison: `O=C(O)COc1c(C(=O)O)sc(-c2ccc(NC(=O)CC(=O)O)cc2)c1Br`, Ki 33 µM. Against it:
- CN(C)c1ccc(-c2sc(C(=O)O)c(OCC(=O)O)c2Br)cc1 — 1.9-fold higher, 64 µM
- O=C(O)COc1c(C(=O)O)sc(-c2ccccc2)c1Br — within 1.5-fold, 26 µM
- O=C(O)COc1c(C(=O)O)sc(-c2ccc(NC(=O)c3cccnc3)cc2)c1Br — 1.7-fold higher, 55 µM

Target: Receptor-type tyrosine-protein phosphatase F (Homo sapiens, UniProt P10586)
Sequence (P10586 whole entry): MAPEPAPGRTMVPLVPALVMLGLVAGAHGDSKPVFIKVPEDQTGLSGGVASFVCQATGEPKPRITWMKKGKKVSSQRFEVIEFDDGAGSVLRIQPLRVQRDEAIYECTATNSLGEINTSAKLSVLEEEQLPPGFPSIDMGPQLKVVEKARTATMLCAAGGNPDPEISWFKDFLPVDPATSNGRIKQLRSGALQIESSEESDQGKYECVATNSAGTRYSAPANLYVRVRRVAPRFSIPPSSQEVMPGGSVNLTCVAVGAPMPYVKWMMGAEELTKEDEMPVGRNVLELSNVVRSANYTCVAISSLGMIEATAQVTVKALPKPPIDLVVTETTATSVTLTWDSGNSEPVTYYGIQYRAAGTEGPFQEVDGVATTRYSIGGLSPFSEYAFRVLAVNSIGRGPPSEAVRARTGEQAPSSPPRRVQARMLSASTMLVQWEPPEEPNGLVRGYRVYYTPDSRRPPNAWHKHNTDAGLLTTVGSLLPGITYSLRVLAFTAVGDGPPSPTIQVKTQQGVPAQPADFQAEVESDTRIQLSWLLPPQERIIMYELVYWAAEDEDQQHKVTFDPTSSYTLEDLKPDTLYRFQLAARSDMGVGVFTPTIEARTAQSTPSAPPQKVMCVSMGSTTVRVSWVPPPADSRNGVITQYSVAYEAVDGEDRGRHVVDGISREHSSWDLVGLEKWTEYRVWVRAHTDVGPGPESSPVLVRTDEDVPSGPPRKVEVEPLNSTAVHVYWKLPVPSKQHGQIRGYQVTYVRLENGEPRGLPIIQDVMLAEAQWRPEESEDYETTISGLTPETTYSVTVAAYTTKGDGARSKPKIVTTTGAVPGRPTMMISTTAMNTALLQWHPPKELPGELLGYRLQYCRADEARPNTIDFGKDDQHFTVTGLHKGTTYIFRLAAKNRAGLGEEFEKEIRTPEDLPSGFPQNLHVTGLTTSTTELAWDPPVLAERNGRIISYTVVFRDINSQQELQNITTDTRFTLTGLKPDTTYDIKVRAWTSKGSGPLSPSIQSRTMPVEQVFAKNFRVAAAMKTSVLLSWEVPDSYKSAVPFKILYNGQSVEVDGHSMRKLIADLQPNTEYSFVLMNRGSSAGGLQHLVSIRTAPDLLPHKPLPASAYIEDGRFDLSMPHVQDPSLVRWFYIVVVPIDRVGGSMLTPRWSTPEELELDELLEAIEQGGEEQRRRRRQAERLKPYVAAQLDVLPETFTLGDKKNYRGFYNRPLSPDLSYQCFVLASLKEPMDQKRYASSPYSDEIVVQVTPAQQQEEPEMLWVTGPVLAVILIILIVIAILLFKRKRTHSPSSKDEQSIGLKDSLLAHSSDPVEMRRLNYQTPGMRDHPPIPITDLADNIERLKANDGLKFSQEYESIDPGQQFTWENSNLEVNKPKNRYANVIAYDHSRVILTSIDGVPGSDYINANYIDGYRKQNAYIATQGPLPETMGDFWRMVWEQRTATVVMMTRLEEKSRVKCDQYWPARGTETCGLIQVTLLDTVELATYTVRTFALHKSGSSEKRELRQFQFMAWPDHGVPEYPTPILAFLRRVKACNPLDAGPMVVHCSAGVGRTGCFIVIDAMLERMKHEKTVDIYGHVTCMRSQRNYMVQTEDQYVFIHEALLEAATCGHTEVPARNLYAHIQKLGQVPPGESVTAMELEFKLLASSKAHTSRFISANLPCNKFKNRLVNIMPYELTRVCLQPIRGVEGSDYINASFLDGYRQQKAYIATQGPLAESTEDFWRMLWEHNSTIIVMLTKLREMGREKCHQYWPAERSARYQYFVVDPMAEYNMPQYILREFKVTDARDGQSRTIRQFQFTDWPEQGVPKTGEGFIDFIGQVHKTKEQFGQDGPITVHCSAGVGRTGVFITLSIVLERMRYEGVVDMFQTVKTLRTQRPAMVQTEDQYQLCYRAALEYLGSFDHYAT
Experiment: Inhibition of LAR

Point of comparison: `O=C(O)COc1c(C(=O)O)sc(-c2ccc(NC(=O)c3cccnc3)cc2)c1Br`, Ki 320 µM. Against it:
- CN(C)c1ccc(-c2sc(C(=O)O)c(OCC(=O)O)c2Br)cc1 — higher, > 1000 µM
- O=C(O)COc1c(C(=O)O)sc(-c2ccccc2)c1Br — higher, > 1000 µM
- O=C(O)COc1c(C(=O)O)sc(-c2ccc(NC(=O)CC(=O)O)cc2)c1Br — higher, > 1000 µM
